{"source": "patent US20110010099A1", "about": "“Correlation Analysis of Biological Systems” (priority 2005, published 2011)", "type_in_all_cases": "in vivo", "key": {"[1]": {"tested_on": "liver of male Wistar Hannover rats", "assay": "Rat hepatotoxicity study: liver morphology / histopathology for steatosis", "details": "7 days dosing, sacrifice day 8, male Wistar Hannover rats", "excerpt": "The primary objective of the study was to discover biomarkers in plasma of hepatic steatotic processes. In the course of this study, multiple molecular profiling techniques and data analysis methodologies were employed. A corollary objective of this study was to elucidate mechanisms underlying hepatic steatosis induced by the drug.\nThe study was designed to generate tissue and body fluid samples from groups of animals exposed for varying times at different doses to a drug previously shown to produce toxic steatosis of the liver.\n(§1) Five Wistar Hannover male rats were used per group. Three groups were dosed for 7 days (control, low and intermediate dose) and urine collected twice daily for up to 7 days. One group was dosed once with a high dose of the drug and kept in a metabolism cage for a recovery study. In addition, three groups (control, intermediate and high dose) were dosed once and sacrificed after 24 hours. Plasma and liver tissue samples were collected from all groups at necropsy. Clinical pathology was performed and histopathological evaluations were provided.\nThe study was designed to generate tissue and body fluid samples from groups of animals treated for varying times and with different doses of ABC123. The different time points and dosing schedules were intended to allow the identification of biomarkers of steatosis over different times and doses."}, "[2]": {"tested_on": "plasma analytes of male Wistar Hannover rats", "assay": "Plasma GC-MS metabolite profiling in rat hepatotoxicity study", "details": "Group 3 drug-administered animals compared to Group 1 animals", "description": "as §1\nLiver and plasma lipid LC-MS. Samples (liver or plasma) were treated with isopropanol to precipitate the protein and to extract the lipid metabolites. […] Resulting mass spectra were peak detected with IMPRESS (proprietary software, BG Medicine, Inc., Waltham, Mass.) and aligned/normalized with Equest and WinLin (proprietary software, BG Medicine, Inc., Waltham, Mass.). […] Metabolites detected with this approach include polar and non-polar lipids. […] The samples were detected with electron impact ionization on an Agilent 5973 MSD. […] Metabolites detected with this method include: alcohols, aldehydes and cyclohexanols, amino acids, acyl amino acids, succinylamino acids, amines, aromatic compounds, fatty acids (>C6), organic acids, phospho-organic acids, sugars, sugar acids, sugar amines, and sugar phosphates. […]"}, "[3]": {"tested_on": "Enzyme_ABC in liver tissue", "assay": "Liver LC-MS proteomics profiling in rat hepatotoxicity study", "details": "Group 3 drug-administered animals relative to Group 1 control animals", "description": "as §1\n• Sample: 100 mg of liver dissected from the thawed liver sample was cut into four 25 mg pieces and homogenized. • Clarification/Fractionation: Unbroken cells, nuclei and extracellular debris were removed using low-G centrifugation, and the resulting clarified homogenate was then subjected to membrane/cytosol fractionation using high-speed ultracentrifugation. • Protein Fractionation of Cytosol: The total cytosolic protein was subjected to C4 reversed-phase column chromatography to isolate 3 fractions for proteomic analysis. […] The resulting membrane tryptic peptide fraction was dried in vacuo. • Profiling of Peptides: Cytosolic peptides from the three acidic peptide sets and the membrane tryptic peptide fraction were quantitatively analyzed for differential expression via reversed-phase LC-ESI-MS. […]"}, "[4]": {"tested_on": "liver mRNA transcripts (Enzyme_ABC, Enzyme_DEF)", "assay": "Liver mRNA transcript profiling (Affymetrix U34A) in rat hepatotoxicity study", "details": "Group 3 drug-administered animals relative to Group 1 control animals", "quoted_text": "Affymetrix microarray processing was carried out on liver tissue samples from 35 animals distributed among the seven experimental groups.\nAn additive effect on the log-transformed signal related to hybridization day was modeled, and the triplicate control samples were used to estimate the effect."}}, "data": [{"molecule": "Cn1c(=O)c2c(ncn2CC2OCCO2)n(C)c1=O", "note": "[ABC123]", "values": [{"measurement": "steatosis upon examination of the livers using standard morphology techniques", "setting": "[1]; Group 2 (lowest dose): 20 mg/kg/day", "value": "no evidence of steatosis"}, {"measurement": "steatosis upon examination of the livers using standard morphology techniques", "setting": "[1]; Group 3: 200 mg/kg/day", "value": "morphological steatosis"}, {"measurement": "increase in abundance of Metabolite_XYZ in plasma (plasma GC-MS platform)", "setting": "[2]", "value": "approximately 1.4 fold"}, {"measurement": "reduction in abundance of Enzyme_ABC in liver tissue (proteomics platform)", "setting": "[3]", "value": "approximately 2 fold"}, {"measurement": "reduction in abundance of Enzyme_ABC in liver tissue (mRNA transcript platform)", "setting": "[4]", "value": "approximately 1.7 fold"}]}]}
